Test results: patent publication US10662214B2, “Compound of 4′-thionucleoside, as well as preparation method therefor, pharmaceutical composition thereof and application thereof” (Sichuan Kelun-Biotech Biopharmaceutical Co., Ltd., priority 2015, dated 2020)

Experiments:
[1] = tested on: colorectal cancer cell HCT-116; experiment: Subcutaneous xenograft of colorectal cancer cell HCT-116 in nude mice (Experimental example 2); conditions: for TGI (%): twice a week for 3 weeks; for Body weight change: 14 days after last administration vs beginning; for Tumor regression, CR (complete tumor regression) / Tumor regression, PR (partial tumor regression): animals out of 8
Procedure: This experimental example was used for the evaluation of the effectiveness of the compounds of the present invention in inhibiting the proliferation of a subcutaneous xenograft of human tumor cells via various routes of administration.
Gastric cancer cell NCI-N87 and colorectal cancer cell HCT-116 were cultured as a monolayer in vitro, and the culture conditions were RPMI-1640 culture medium supplemented with 10% heat inactivated Fetal Bovine Serum, and incubation in an incubator at 37° C. and 5% CO2. The cells were subcultured by treatment with trypsin-EDTA digestion.
The tumor cells were respectively inoculated into BALB/c nude mice (SPF grade, female, 16-18 g per mouse, about 6 to 8 weeks old, Beijing Vital River Laboratory Animal Technology Co., Ltd.).
Each nude mouse was inoculated with about 2.5×10^6 HCT-116 tumor cells or about 3×10^6 NCI-N87 tumor cells (suspended in 0.1 ml PBS) subcutaneously into the underarm of the right flank. After the inoculated tumor reached a size in the range of about 100-200 mm^3, nude mice bearing a tumor that is too small (smaller than 100 mm^3) or too big (bigger than 200 mm^3) were removed from the study, and the remaining ones were randomized into groups.
Sulfobutyl ether-β-cyclodextrin (SE-β-CD) was formulated with physiological saline to form a 10% solution, which was then filtered through a 0.22 μm sterile filter for later use.
An appropriate amount of the test compound was weighted, and added in DMSO. The resultant solution was vortexed to uniformity, and the 10% solution of SE-β-CD was added according to the desired concentration. The solution was vortexed to uniformity, and the final concentration of DMSO was adjusted to 5%. A gemcitabine injection (a positive control) was directly diluted to the desired concentration with physiological saline. A 10% solution of SE-β-CD containing 5% DMSO was prepared as a vehicle control.
Mice bearing a tumor having a volume of about 100-200 mm^3 were selected, and randomized into 5 groups (8 mice per group). The dosing volume was 10 mL/kg, and the administration (intravenous administration (i.v.) or oral administration (p.o.)) was performed twice a week for 3 weeks. The tumor volume and body weight were measured twice a week after the administration, and the mortality of animals was observed every day.
The diameter of a tumor was measured, and the tumor volume was calculated according to the following formula: V=0.5a×b^2, wherein a and b respectively represent the major and minor diameters of a tumor. The anti-tumor effect was evaluated by the tumor growth inhibition (TGI) (%). TGI (%)=[1−(VT-end−VT-start)/(VC-end−VC-start)]*100%
The body weight of an animal was measured twice a week.

[2] = tested on: human pancreatic cancer cell PANC-1; experiment: Subcutaneous xenograft of human pancreatic cancer cell PANC-1 in a nude mouse (Experimental example 6); assay type: in vivo; conditions: once every 3 days, 6 times
Procedure: This test was performed according to experimental example 5.
Mice bearing a tumor having a volume of 100-200 mm^3 were selected, and randomized into 4 groups (6 mice per group).

CC(C)OC(=O)[C@H](C)N[P@](=O)(OC[C@H]1S[C@@H](n2ccc(N)nc2=O)[C@@H](F)[C@@H]1O)Oc1ccccc1 [Compound C8, (S)-isopropyl 2-(((S)-(((2R,3S,4S,5R)-5-(4-amino-2-oxopyrimidin-1(2H)-yl)-4-fluoro-3-hydroxytetrahydrothiophen-2-yl)methoxy)(phenoxy)phosphoryl)amino)propanoate]
Mortality ([1]; 190 μmol/kg i.v.): 0
TGI (%) ([1]; 190 μmol/kg i.v.): 111%
Body weight change ([1]; 190 μmol/kg i.v.): +7.4%
Tumor regression, CR (complete tumor regression) ([1]; 190 μmol/kg i.v.): 1/8 CR,
Tumor regression, PR (partial tumor regression) ([1]; 190 μmol/kg i.v.): 7/8 PR
Mortality ([1]; 190 μmol/kg p.o.): 0
TGI (%) ([1]; 190 μmol/kg p.o.): 113%
Body weight change ([1]; 190 μmol/kg p.o.): +8.9%
Tumor regression, CR (complete tumor regression) ([1]; 190 μmol/kg p.o.): 1/8 CR,
Tumor regression, PR (partial tumor regression) ([1]; 190 μmol/kg p.o.): 7/8 PR
TGI (%) ([2]; 0.06 mmol/kg p.o.): 155%
TGI (%) ([2]; 0.19 mmol/kg p.o.): 195%
